The source of these data is patent US10780092B2, “Fused pyrazine derivatives useful as soluble guanylate cyclase stimulators” (Merck Sharp & Dohme Corp., priority 2016, dated 2020).

One test concerns the target sGC α1/β1 heterodimer (Homo sapiens (Human), UniProt Q02108+Q02153). Put plainly: Cell-based sGC functional assay (CASA assay), cGMP by HTRF. The note with it: CHO-K1/sGC cells; for Emax: CHO-K1, cGMP production as percentage of maximum of compound A (set to 100%), read-out: % Activation; for EC50: inflection point of cGMP production, 4P fit, read-out: IP. In a few lines:
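CHO-K1 cells stably expressing human sGC α1/β1, with 0.5 mM IBMX, pre-incubated ±1 μM DETA-NO 30 min at 25° C, then compound 1 hr at 37° C (2.5% DMSO). cGMP by HTRF; activation as % of reference activator maximum, 4P fit giving inflection point and maximum […].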
In general terms: In TR-FRET formats the signal depends on donor and acceptor labels being close together.

Test [1] concerns the target human recombinant sGC enzyme (Homo sapiens (Human), UniProt Q02108+Q02153). The test can be described thus: SEC competition binding assay with [3H] Compound B radioligand. The conditions noted are these: displacement of 1.6 nM [3H] Compound B, 24 h at 37° C. The method, boiled down:
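Recombinant human sGC incubated with 1.6 nM [3H] Compound B and test compounds for 24 h at 37° C. Buffer: 50 mM triethanolamine pH 7.4, 3 mM MgCl2, 0.025% BSA, 2 mM DTT, 300 μM DETA/NO, 400 μM GTP, 1% DMSO. Bound ligand separated by gel filtration and counted by scintillation; non-specific binding with 1 μM Compound B; Ki from one-site fit.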

Turning to `CC1(c2ccc(F)c(O)c2)C(=O)Nc2nc(-c3cn4ccnc4c(CCC4CCCCC4)n3)nc(N)c21` (stereo not drawn) [Example 86-B, 4-Amino-2-(8-(2-cyclohexylethyl)imidazo[1,2-a]pyrazin-6-yl)-5-(4-fluoro-3-hydroxyphenyl)-5-methyl-5,7-dihydro-6H-pyrrolo[2,3-d]pyrimidin-6-one], on sGC α1/β1 heterodimer, the Emax turned out to be 122% and the EC50 was determined as 0.166 µM. Further, the Ki in test [1] was determined as 0.00222 µM.

Regarding `CC1(c2ccc(Cl)c(O)c2)C(=O)Nc2nc(-c3cn4ncnc4c(CCCC(F)(F)F)n3)nc(N)c21` (stereo not drawn) [Example 87-A, 4-Amino-5-(4-chloro-3-hydroxyphenyl)-5-methyl-2-(8-(4,4,4-trifluorobutyl)-[1,2,4]triazolo[1,5-a]pyrazin-6-yl)-5,7-dihydro-6H-pyrrolo[2,3-d]pyrimidin-6-one], at sGC α1/β1 heterodimer, the Emax stood at 111% and the EC50 is 0.935 µM. Also, the Ki in test [1] came out at 0.0028 µM.

As to `CC1(c2ccc(O)c(Cl)c2)C(=O)Nc2nc(-c3cn4ccnc4c(CC4CCCCC4)n3)nc(N)c21` (stereo not drawn) [Example 89-B, 4-Amino-5-(3-chloro-4-hydroxyphenyl)-2-(8-(cyclohexylmethyl)imidazo[1,2-a]pyrazin-6-yl)-5-methyl-5,7-dihydro-6H-pyrrolo[2,3-d]pyrimidin-6-one], at sGC α1/β1 heterodimer, the Emax amounted to 127% and the EC50 amounted to 0.809 µM. Moreover, in test [1], the Ki was 0.000823 µM.

Turning to `CC1(c2ccc(Cl)c(O)c2)C(=O)Nc2nc(-c3cn4ccnc4c(Cc4c(F)cccc4F)n3)nc(N)c21` (stereo not drawn) [Example 90-A, 4-Amino-5-(4-chloro-3-hydroxyphenyl)-2-{8-[(2,6-difluorophenyl)methyl]imidazo[1,2-a]pyrazin-6-yl}-5-methyl-5,7-dihydro-6H-pyrrolo[2,3-d]pyrimidin-6-one], on sGC α1/β1 heterodimer, the Emax was 138% and the EC50 was 0.094 µM. Further, the Ki in test [1] was 0.00243 µM.

Turning to `CC1(c2ccc(Cl)c(O)c2)C(=O)Nc2nc(-c3cn4ccnc4c(Cc4ccc(F)cc4F)n3)nc(N)c21` (stereo not drawn) [Example 91-A, 4-Amino-5-(4-chloro-3-hydroxyphenyl)-2-{8-[(2,4-difluorophenyl)methyl]imidazo[1,2-a]pyrazin-6-yl}-5-methyl-5,7-dihydro-6H-pyrrolo[2,3-d]pyrimidin-6-one], on sGC α1/β1 heterodimer, the Emax was 141% and the EC50 was 0.075 µM. In addition, the Ki in test [1] is 0.000199 µM.

As to `CC1(c2cc(O)c(Cl)cn2)C(=O)Nc2nc(-c3cn4ccnc4c(Cc4ccc(F)cc4)n3)nc(N)c21` (stereo not drawn) [Example 92-B, 4-Amino-5-(5-chloro-4-hydroxypyridin-2-yl)-2-{8-[(4-fluorophenyl)methyl]imidazo[1,2-a]pyrazin-6-yl}-5-methyl-5,7-dihydro-6H-pyrrolo[2,3-d]pyrimidin-6-one], on sGC α1/β1 heterodimer, the Emax turned out to be 104% and the EC50 is 2.86 µM. In addition, the inhibitory constant (Ki) in test [1] was 0.000729 µM.

Turning to `CC1(c2ccc(Cl)c(O)c2)C(=O)Nc2nc(-c3cn4ccnc4c(CC4CCC(F)(F)CC4)n3)nc(N)c21` (stereo not drawn) [Example 95-A, 4-Amino-5-(4-chloro-3-hydroxyphenyl)-2-(8-((4,4-difluorocyclohexyl)methyl)imidazo [1,2-a]pyrazin-6-yl)-5-methyl-5,7-dihydro-6H-pyrrolo[2,3-d]pyrimidin-6-one], at sGC α1/β1 heterodimer, the Emax is 96% and the EC50 amounted to 1.81 µM. Moreover, in test [1], the Ki came to 0.0144 µM.

As to `CC1(c2ccc(F)c(Cl)c2O)C(=O)Nc2nc(-c3cn4ccnc4c(Cc4cc(F)cc(F)c4)n3)nc(N)c21` (stereo not drawn) [Example 96-B, 4-Amino-5-(3-chloro-4-fluoro-2-hydroxyphenyl)-2-{8-[(3,5-difluorophenyl)methyl]imidazo[1,2-a]pyrazin-6-yl}-5-methyl-5,7-dihydro-6H-pyrrolo[2,3-d]pyrimidin-6-one], on sGC α1/β1 heterodimer, the Emax stood at 169% and the EC50 was found to be 0.138 µM. In addition, the Ki in test [1] stood at 0.000862 µM.

In the case of `CC1(c2cc(O)c(Cl)cn2)C(=O)Nc2nc(-c3cn4ccnc4c(Cc4c(F)cccc4F)n3)nc(N)c21` (stereo not drawn) [Example 98-B, 4-Amino-5-(5-chloro-4-hydroxypyridin-2-yl)-2-{8-[(2,6-difluorophenyl)methyl]imidazo[1,2-a]pyrazin-6-yl}-5-methyl-5,7-dihydro-6H-pyrrolo[2,3-d]pyrimidin-6-one], on sGC α1/β1 heterodimer, the Emax turned out to be 73% and the EC50 was determined as 3.3 µM. In test [1], the Ki is 0.00831 µM.

In the case of `Cc1cn2cc(-c3nc(N)c4c(n3)NC(=O)C4(C)c3ccc(Cl)c(O)c3)nc(Cc3cccc(F)c3)c2n1` (stereo not drawn) [Example 99-A, 4-Amino-5-(4-chloro-3-hydroxyphenyl)-2-{8-[(3-fluorophenyl)methyl]-2-methylimidazo[1,2-a]pyrazin-6-yl}-5-methyl-5,7-dihydro-6H-pyrrolo[2,3-d]pyrimidin-6-one], at sGC α1/β1 heterodimer, the Emax was found to be 97% and the EC50 is 0.553 µM. In addition, the inhibition constant Ki in test [1] stood at 0.000803 µM.

Take `Cc1cn2cc(-c3nc(N)c4c(n3)NC(=O)C4(C)c3ccc(Cl)c(O)c3)nc(Cc3ccccc3F)c2n1` (stereo not drawn) [Example 100-A, 4-Amino-5-(4-chloro-3-hydroxyphenyl)-2-{8-[(2-fluorophenyl)methyl]-2-methylimidazo[1,2-a]pyrazin-6-yl}-5-methyl-5,7-dihydro-6H-pyrrolo[2,3-d]pyrimidin-6-one]: on sGC α1/β1 heterodimer, the Emax came to 106% and the EC50 was found to be 0.652 µM. Besides, the Ki in test [1] turned out to be 0.000544 µM.

As to `CC1(c2cc(O)c(C#N)c(F)c2)C(=O)Nc2nc(-c3cn4ccnc4c(Cc4cc(F)ccc4F)n3)nc(N)c21` (stereo not drawn) [Example 101-B, 4-(4-Amino-2-{8-[(2,5-difluorophenyl)methyl]imidazo[1,2-a]pyrazin-6-yl}-5-methyl-6-oxo-6,7-dihydro-5H-pyrrolo[2,3-d]pyrimidin-5-yl)-2-fluoro-6-hydroxybenzonitrile], at sGC α1/β1 heterodimer, the Emax is 53% and the EC50 turned out to be 0.282 µM. For the same compound, the Ki in test [1] was 0.000162 µM.

As to `CC1(c2cc(O)c(C#N)c(F)c2)C(=O)Nc2nc(-c3cn4ccnc4c(Cc4cc(F)cc(F)c4F)n3)nc(N)c21` (stereo not drawn) [Example 102-B, 4-(4-Amino-5-methyl-6-oxo-2-{8-[(2,3,5-trifluorophenyl)methyl]imidazo[1,2-a]pyrazin-6-yl}-6,7-dihydro-5H-pyrro1o[2,3-d]pyrimidin-5-yl)-2-fluoro-6-hydroxybenzonitrile], on sGC α1/β1 heterodimer, the Emax was 73% and the EC50 amounted to 0.382 µM. In addition, the Ki in test [1] stood at 0.000118 µM.

For the compound `CC1(c2cc(O)c(Cl)cn2)C(=O)Nc2nc(-c3cn4ccnc4c(Cc4cc(F)cc(F)c4F)n3)nc(N)c21` (stereo not drawn) [Example 103-B, 4-Amino-5-(5-chloro-4-hydroxypyridin-2-yl)-5-methyl-2-{8-[(2,3,5-trifluorophenyl)methyl]imidazo[1,2-a]pyrazin-6-yl}-5,7-dihydro-6H-pyrrolo[2,3-d]pyrimidin-6-one], on sGC α1/β1 heterodimer, the Emax was determined as 78% and the EC50 stood at 0.231 µM. Further, in test [1], the Ki came out at 0.000175 µM.

Regarding `CC1(c2ccc(Cl)c(O)c2)C(=O)Nc2nc(-c3cn4ncnc4c(CCCCF)n3)nc(N)c21` (stereo not drawn) [Example 106-A, 4-Amino-5-(4-chloro-3-hydroxyphenyl)-2-(8-(4-fluorobutyl)-[1,2,4]triazolo[1,5-a]pyrazin-6-yl)-5-methyl-5,7-dihydro-6H-pyrrolo[2,3-d]pyrimidin-6-one], on sGC α1/β1 heterodimer, the Emax came to 81% and the EC50 amounted to 0.902 µM. The inhibition constant Ki in test [1] was 0.00184 µM.

One may read the Ki as a dissociation constant, usually derived from enzyme kinetics or from competition with a known ligand.
